The target in experiment [1] is T1, delF508-CFTR (Homo sapiens, UniProt P13569, DEL508-508).
T1 construct: The CF15 cells are human epithelial cells of nasal origin which express the ΔF508-CFTR gene; endogenous in cells; host or cells: CF15 human airway epithelial cells (F508del/F508del)
Put plainly: Iodide efflux (radiotracer) after 2 h treatment of CF15 cells, forskolin activation. It is filed as cell-based.

Experiment [2] addresses T1, delF508-CFTR. Nature of the experiment: Competition experiments by the iodide efflux technique between guanabenz and the chaperone machinery of the ER. The format is cell-based. As to the method: The measurements of chloride ion transport in the cells were performed with the aid of the radioactive iodide efflux technique (Becq et al., 1999; Dormer et al., 2001). The tracer (^125I) is incorporated into the intracellular medium. Next, the quantity of radiotracer which leaves the cell is counted after the addition of various pharmacological agents. The iodide is used as chloride ion transport tracer. ^125I further has the advantage of having a short life compared with that of other markers such as […] (respective ½ life: […] and 300 000 years).
The cells are cultured on 24-well plates in a suitable medium. Two rinses with efflux medium (NaCl: 136.6 mM, KCl: 5.4 mM, KH2PO4: 0.3 mM, NaH2PO4: 0.3 mM, NaHCO3: 4.2 mM, CaCl2: 1.3 mM, MgCl2: 0.5 mM, MgSO4: 0.4 Mm, HEPES: 10 mM, D-glucose: 5.6 mM) are performed in order to remove the dead cells which anarchically release radioactivity. Next, the cells are incubated with 500 μl of load (1 μCi/ml of ^125INa) for 30 min for the CHO-WT cells or 1 h for the CF15 and Calu-3 cells. The iodide forms an equilibrium on either side of the cell membrane. The robot (MultiPROBE, Packard) carries out the following steps: the load medium is rinsed with efflux medium in order to remove the extracellular radioactivity. The supernatant is collected every minute in hemolysis tubes and the medium is replaced with an equivalent volume (500 μl). No drug is added to the samples collected for the first 3 minutes, they make it possible to obtain a stable baseline, characterizing the passive outflow of the I ions. […] At the end of the experiment, the cells are lysed by adding 500 μl of NaOH (0.1N)/0.1% SDS (30 min), thus the radioactivity remaining inside the cell can be determined. The radioactivity present in the hemolysis tubes is counted in counts per minute (cpm) using a gamma counter (Cobra II, Packard). […] In order to quantify the outflow of iodide due to the administration of the test molecule, the following relative flow is calculated, which makes it possible to dispense with the basal flow: relative speed (min^−1)=Rpic−Rbasal. […]

pEC50: −log10 of the molar value.

The pEC50 is the negative decadic logarithm of the EC50, by convention in mol/L.

T1 sequence (P13569 with tags, fused parts or gaps DEL508-508): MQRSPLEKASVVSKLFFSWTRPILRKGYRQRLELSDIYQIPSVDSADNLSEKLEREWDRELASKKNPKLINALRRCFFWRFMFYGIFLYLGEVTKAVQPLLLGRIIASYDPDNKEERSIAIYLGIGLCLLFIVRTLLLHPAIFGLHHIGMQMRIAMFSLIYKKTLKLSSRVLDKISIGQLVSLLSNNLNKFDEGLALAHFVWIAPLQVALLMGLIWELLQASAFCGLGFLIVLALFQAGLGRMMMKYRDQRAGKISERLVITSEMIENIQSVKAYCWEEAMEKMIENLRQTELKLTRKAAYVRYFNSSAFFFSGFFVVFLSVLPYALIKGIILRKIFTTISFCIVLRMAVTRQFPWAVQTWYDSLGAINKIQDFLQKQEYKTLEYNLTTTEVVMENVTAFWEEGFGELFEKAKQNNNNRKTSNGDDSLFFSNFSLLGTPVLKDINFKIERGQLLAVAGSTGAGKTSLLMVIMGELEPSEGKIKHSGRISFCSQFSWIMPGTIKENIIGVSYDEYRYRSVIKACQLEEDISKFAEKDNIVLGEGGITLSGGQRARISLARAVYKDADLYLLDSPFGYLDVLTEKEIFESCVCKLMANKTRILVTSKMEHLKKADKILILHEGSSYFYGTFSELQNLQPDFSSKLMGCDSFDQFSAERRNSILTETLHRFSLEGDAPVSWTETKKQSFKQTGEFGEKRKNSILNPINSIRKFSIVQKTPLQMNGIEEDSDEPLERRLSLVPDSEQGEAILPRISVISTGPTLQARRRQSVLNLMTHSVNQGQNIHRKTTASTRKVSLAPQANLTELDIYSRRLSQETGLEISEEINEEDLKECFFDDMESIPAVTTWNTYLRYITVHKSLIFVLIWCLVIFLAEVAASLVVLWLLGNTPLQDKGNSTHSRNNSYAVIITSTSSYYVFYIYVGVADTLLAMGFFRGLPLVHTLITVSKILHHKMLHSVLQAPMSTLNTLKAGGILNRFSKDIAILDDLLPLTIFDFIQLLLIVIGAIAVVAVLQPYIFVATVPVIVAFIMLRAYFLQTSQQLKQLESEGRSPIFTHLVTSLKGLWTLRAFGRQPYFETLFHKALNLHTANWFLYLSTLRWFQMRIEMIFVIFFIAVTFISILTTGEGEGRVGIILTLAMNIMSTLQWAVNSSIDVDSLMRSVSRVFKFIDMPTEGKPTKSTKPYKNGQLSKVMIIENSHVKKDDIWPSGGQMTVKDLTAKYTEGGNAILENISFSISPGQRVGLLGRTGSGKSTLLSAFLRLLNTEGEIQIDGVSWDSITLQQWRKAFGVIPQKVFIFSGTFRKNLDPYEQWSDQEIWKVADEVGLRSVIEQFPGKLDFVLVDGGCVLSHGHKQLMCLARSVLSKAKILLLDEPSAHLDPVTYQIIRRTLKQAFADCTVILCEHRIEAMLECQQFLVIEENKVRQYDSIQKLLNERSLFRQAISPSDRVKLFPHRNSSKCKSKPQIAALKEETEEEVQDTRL

On to `N=C(N)N/N=C/c1c(Cl)cccc1Cl` [guanabenz], for which the “readdressing of the mutated protein F508del-CFTR to the membrane” value on delF508-CFTR [1] (CF15 cells (F508del/F508del) treated with guanabenz) is given as “allows readdressing of the mutated protein F508del-CFTR to the membrane”. Further, the negative logarithm of the EC50 (pEC50) at delF508-CFTR [1] (CF15 cells, 2 h of treatment, iodide efflux, read-out: EC50 of readdressing of the protein F508del-CFTR) was 4.40. The “effect of guanabenz in the presence of Brefeldine-A (BFA)” value on delF508-CFTR [2] (BFA, inhibitor of vesicular ERGIC traffic) was “inhibition of the effect of guanabenz”. On delF508-CFTR [2] (MG132, proteasome inhibitor), the “effect of guanabenz in the presence of MG132” value is recorded as “No modulation of the effect of guanabenz”. At delF508-CFTR [2] (swainsonine, mannosidase inhibitor), the “effect of guanabenz in the presence of swainsonine” value is reported as “low potentiation of the effect of guanabenz”.

(Values after patent publication US8252958B2, “Use of guanabenz and its derivatives for making drugs for treating cystic fibrosis and diseases related to a protein addressing deficiency in the cells” (Centre National de la Recherche Scientifique (CNRS), priority 2006, dated 2012).)
